# Patent US4550186A, “Binuclear copper (II) carboxylates formed from amine-carboxyboranes” (Duke University, priority 1983, dated 1985)
# Molecular target: T1, transfer ribonucleic acid polymerase (Mus musculus, UniProt B2RXC6+P59470)
# T1 sequence (B2RXC6 1-1390): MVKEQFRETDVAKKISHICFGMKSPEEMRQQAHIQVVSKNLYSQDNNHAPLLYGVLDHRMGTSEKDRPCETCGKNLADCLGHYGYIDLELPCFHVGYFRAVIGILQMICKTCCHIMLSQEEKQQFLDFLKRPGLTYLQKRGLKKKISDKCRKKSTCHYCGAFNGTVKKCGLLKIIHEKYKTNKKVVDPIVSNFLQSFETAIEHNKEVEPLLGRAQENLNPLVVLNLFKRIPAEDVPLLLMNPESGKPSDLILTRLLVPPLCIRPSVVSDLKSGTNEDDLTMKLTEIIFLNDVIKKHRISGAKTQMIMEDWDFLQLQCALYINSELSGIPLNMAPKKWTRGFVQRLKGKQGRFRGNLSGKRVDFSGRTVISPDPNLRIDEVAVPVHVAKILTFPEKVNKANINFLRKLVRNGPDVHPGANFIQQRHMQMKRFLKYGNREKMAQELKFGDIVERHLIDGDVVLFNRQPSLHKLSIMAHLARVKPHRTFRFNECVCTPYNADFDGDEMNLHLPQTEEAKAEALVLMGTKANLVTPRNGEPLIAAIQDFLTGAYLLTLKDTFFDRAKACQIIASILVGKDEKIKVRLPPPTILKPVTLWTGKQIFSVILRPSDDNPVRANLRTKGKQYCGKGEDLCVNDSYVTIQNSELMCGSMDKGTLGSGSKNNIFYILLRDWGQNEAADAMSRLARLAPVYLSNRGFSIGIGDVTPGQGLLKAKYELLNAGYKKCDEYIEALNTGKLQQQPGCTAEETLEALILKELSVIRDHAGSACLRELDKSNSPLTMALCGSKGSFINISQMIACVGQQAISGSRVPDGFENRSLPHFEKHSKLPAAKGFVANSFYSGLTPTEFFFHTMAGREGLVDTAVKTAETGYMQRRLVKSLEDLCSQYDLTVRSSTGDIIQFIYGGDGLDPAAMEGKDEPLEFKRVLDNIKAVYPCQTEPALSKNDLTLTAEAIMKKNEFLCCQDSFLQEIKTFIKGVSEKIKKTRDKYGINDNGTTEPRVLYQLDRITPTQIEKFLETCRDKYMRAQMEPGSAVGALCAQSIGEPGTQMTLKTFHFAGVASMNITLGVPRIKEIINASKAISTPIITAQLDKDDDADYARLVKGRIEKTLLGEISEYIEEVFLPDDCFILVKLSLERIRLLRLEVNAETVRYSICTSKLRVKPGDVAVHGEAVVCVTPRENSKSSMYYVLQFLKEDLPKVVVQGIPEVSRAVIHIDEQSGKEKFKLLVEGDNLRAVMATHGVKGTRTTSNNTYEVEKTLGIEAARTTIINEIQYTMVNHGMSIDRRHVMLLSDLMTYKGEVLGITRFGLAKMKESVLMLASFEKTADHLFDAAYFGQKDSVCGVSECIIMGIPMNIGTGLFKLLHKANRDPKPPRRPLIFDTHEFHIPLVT
# T1 sequence (P59470 1-1133): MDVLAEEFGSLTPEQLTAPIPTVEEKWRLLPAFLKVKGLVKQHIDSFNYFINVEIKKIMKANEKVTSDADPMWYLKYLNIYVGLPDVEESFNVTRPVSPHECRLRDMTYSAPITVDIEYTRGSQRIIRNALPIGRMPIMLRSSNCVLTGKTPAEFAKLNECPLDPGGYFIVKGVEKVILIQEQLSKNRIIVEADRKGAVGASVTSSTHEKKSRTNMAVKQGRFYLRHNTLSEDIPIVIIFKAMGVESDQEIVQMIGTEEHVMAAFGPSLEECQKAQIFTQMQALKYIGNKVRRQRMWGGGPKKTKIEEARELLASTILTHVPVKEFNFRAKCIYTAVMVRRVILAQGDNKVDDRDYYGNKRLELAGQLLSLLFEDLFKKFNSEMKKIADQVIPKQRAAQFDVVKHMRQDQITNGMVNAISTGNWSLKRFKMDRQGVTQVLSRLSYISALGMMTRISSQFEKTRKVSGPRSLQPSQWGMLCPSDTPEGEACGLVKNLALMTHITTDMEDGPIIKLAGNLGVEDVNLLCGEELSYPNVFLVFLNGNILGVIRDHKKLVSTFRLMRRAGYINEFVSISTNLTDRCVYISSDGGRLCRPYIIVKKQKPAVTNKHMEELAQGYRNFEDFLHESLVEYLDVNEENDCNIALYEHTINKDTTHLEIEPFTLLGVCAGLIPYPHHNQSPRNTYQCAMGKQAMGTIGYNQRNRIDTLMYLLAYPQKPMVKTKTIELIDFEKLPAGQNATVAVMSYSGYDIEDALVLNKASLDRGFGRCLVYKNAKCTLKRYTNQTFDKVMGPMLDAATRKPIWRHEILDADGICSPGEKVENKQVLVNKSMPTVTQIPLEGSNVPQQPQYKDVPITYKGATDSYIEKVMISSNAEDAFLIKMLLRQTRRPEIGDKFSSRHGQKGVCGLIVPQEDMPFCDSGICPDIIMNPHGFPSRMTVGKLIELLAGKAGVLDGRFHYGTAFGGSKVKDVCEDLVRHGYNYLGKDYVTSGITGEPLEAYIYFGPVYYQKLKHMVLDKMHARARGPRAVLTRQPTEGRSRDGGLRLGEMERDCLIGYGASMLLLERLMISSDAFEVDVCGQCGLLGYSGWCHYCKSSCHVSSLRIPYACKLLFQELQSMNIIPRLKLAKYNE
# Assay: In vitro transfer ribonucleic acid polymerase activity
# Format: biochemical
# Details: read-out: ID50, Transfer ribonucleic acid polymerase activity
# Method: CF1 male mice (~30 g) were implanted with 2×10^6 Ehrlich ascites tumor cells, intraperitoneally on Day 0. Compound I was suspended by homogenation in 0.05% polysorbate.80-water and administered intraperitoneally at 10 and 20 mg/kg for 9 days to determine its effectiveness for inhibition of tumor growth. Mice were sacrificed on Day 10, and the ascites fluid was collected from the peritoneal cavity. The volume and ascrit (packed cell volume) were determined for each animal and the percent inhibition of tumor growth was calculated. For the metabolic studies, mice were treated on Days 8 and 9 with 10 mg/kg of Compound I, intraperitoneally. The animal was sacrificed on Day 10 and the ascites fluid harvested. The in vitro metabolic studies were performed at […] final concentration of Compound I.
# In vitro and in vivo nuclear deoxyribonucleic acid polymerase activity was determined on isolated Ehrlich ascites cell nuclei. The incubation was that described by Sawada et al [Can. Res., 34, 3341 (1974)] except that [methyl-^3 H] deoxythymidine triphosphate (82.4 Ci/mmol) was used. The acid insoluble nucleic acid was collected on GF/F filters and counted. Nuclear ribonucleic acid polymerase activities were determined on enzymes isolated from nuclei. […] The acid insoluble ribonucleic acid was collected on nitrocellulose filters and counted.
substance,measurement,value
{Cu[(CH3)3 N.BH2 CO2 ]2.(CH3)3 N.BH2 COOH} [Compound I],IC50,433 µM
